Laboratory results taken from paper PMC8286348 (Biochemical and biophysical research communications, 2021).
Like-named read-outs stand apart in the source and are kept apart here.

Assays:
[1] = compared to 1; cited from earlier work
PR dimerization = conditions: relative to 1; cited from earlier work
PR^S17 [2] = assay: Kinetic inhibition; type: biochemical, HIV-1; conditions: read-out: Ki for PR^S17; FRET-substrate (BACHEM H-2992), 37°C, pH 5.6
PR^S17 [3] = conditions: read-out: Ki for PR^S17; clinical inhibitors; cited from earlier work
HIV-1 = conditions: read-out: antiviral IC50; MTT assay; cited from earlier work
HIV-1 protease (PR) = conditions: cited from earlier work

| Compound | CNS penetration in vitro [1] | fold better inhibition of PR dimerization than 1 (PR dimerization) | Ki (PR^S17 [2]) | Ki (PR^S17 [3]) | IC50 (HIV-1) | Ki (HIV-1 protease (PR)) |
| --- | --- | --- | --- | --- | --- | --- |
| CC(C)CN(C[C@@H](O)[C@H](Cc1cc(F)cc(F)c1)NC(=O)O[C@H]1C2COC3OCC1C3C2)S(=O)(=O)c1ccc2nc(NC3CC3)sc2c1 (stereo partly shown) [Compound 3, GRL-142] | better CNS penetration in vitro compared to 1 | around 1000 fold | 17 ± 1.3 nM |  |  |  |
| CC(C)CN(C[C@@H](O)[C@H](Cc1ccccc1)NC(=O)O[C@H]1CCOC1)S(=O)(=O)c1ccc(N)cc1 [amprenavir] |  |  |  | 11 nM |  |  |
| GRL-4410 [Compound 2] |  |  | 15.8 ± 4.8 nM |  | 2.4 nM | 0.0029 nM |
